In brackets after ≈: the same amount, converted by molar mass.
Columns and labels:
[1] = test system: house flies; test: Campbell's turn table oil spray test on house fly adults (Experimental Example 1); format: in vivo; details: Musca domestica, 24 h, oil spray 5 ml, 10 min exposure, mortality after 1 day, read-out: LC50 (50 percent lethal concentration)
Method: The present compounds (1), (4), (8), (10), (14), (15), (20), (22), (32), (36), (38), (41), (44), (48), (50), (51), (52), (53), (61), (66), (68), (72), (73), (78), (80), (81), (90), (93) and (96), and chrysanthemic acid esters and pyrethric acid esters corresponding thereto were individually formulated by use of deodorized kerosene into oil sprays of various test concentrations.
Using the Campbell's turn table [disclosed in "Soap & Sanitary Chemicals," Vol. 14, No. 6, page 119 (1938)], 5 ml. of each of the oil sprays was sprayed. When 20 seconds had elapsed after the spraying, the shutter was opened, and adults of house flies (a group of about 100 flies) were exposed to the settling mist for 10 minutes and then transferred to an observation cage.
The above operation was repeated several times to measure the LC50 (50 percent lethal concentration) of each compound.

[2] = test system: Northern house mosquitoes; test: knock-down test of oil sprays on Northern house mosquito adults in (70 cm)^3 glass chamber (Experimental Example 2); format: in vivo
Method: The present compounds (1), (6), (20), (22), (23), (25), (27), (29), (30), (31), (39), (42), (43), (45), (49), (53), (56), (62), (64), (78), (81), (83), (85), (87), (88) and (89), and chrysanthemic acid esters and pyrethric acid esters corresponding thereto were individually formulated by use of deodorized kerosene into oil sprays of various test concentrations.
About 20 adults of Northern house mosquitoes were liberated in a (70 cm)^3 glass chamber, and 0.7 ml. of each of the oil sprays was sprayed into the chamber under a pressure of 1.5 kg/cm^2 by use of a glass atomizer. Subsequently, the number of knocked-down mosquitoes was counted to calculate the KT50 (50 percent knock down time) of each compound.

[3] = concentration of oil spray 0.2%
[4] = concentration of oil spray 0.1%

| SMILES | LC50 [1] | KT50 (50 percent knock down time) [2, 3] | KT50 (50 percent knock down time) [2, 4] |
| --- | --- | --- | --- |
| C=CCc1cc(C)c(COC(=O)C2C(C=C(C)C(=O)OC)C2(C)C)c(C)c1 (centres unmarked) [2,6-Dimethyl-4-allylbenzyl pyrethrate, reference compound] | 1420 µg/mL (≈ 3830 µM) |  |  |
| C=CCC1=C(C)C(OC(=O)C2C(C=C(C)C(=O)OC)C2(C)C)CC1=O (centres unmarked) [2-Allyl-3-methyl-2-cyclopentene-1-one-4-yl pyrethrate, reference compound] |  | 173 s |  |
| C#CCC1=C(C)C(OC(=O)C2C(C=C(C)C)C2(C)C)CC1=O (centres unmarked) [2-Propargyl-3-methyl-2-cyclopentene-1-one-4-yl chrysanthemate, reference compound] |  |  | 249 s |
| CC(C)=CC1C(C(=O)OCN2C(=O)C3=C(CCCC3)C2=O)C1(C)C (centres unmarked) [3,4,5,6-Tetrahydrophthalimidomethyl chrysanthemate, reference compound] |  |  | 103 s |
| CC(C)=CC1C(C(=O)OCN2C(=O)C3=C(CC=CC3)C2=O)C1(C)C (centres unmarked) [3,6-Dihydrophthalimidomethyl chrysanthemate, reference compound] |  |  | 107 s |
| COC(=O)C(C)=CC1C(C(=O)OCc2cccc(Oc3ccccc3)c2)C1(C)C (centres unmarked) [3-Phenoxybenzyl pyrethrate, reference compound] | 1250 µg/mL (≈ 3170 µM) |  |  |
| COC(=O)C(C)=CC1C(C(=O)OCc2coc(Cc3ccccc3)c2)C1(C)C (centres unmarked) [5-Benzyl-3-furylmethyl pyrethrate, reference compound] | 890 µg/mL (≈ 2330 µM) | 182 s |  |
| C#CCc1ccc(C(C#C)OC(=O)C2C(C=C(C)C)C2(C)C)o1 (stereo not drawn) [5-Propargyl-α-ethynylfurfuryl chrysanthemate, reference compound] | 260 µg/mL (≈ 838 µM) |  | 120 s |
| C#CCc1ccc(C(C#C)OC(=O)C2C(C=C(C)C(=O)OC)C2(C)C)o1 (stereo not drawn) [5-Propargyl-α-ethynylfurfuryl pyrethrate, reference compound] | 820 µg/mL (≈ 2310 µM) |  |  |
| C#CCc1ccc(COC(=O)C2C(C=C(C)C)C2(C)C)o1 (centres unmarked) [5-Propargylfurfuryl chrysanthemate, reference compound] |  | 132 s |  |
| CC(C)=CC1C(C(=O)OCN2C(=O)C(C)=C(C)C2=O)C1(C)C (centres unmarked) [Dimethylmaleimidomethyl chrysanthemate, reference compound] |  |  | 101 s |
| CC(C)=CC1C(C(=O)OCN2C(=O)c3ccccc3C2=S)C1(C)C (centres unmarked) [Monothiophthalimidomethyl chrysanthemate, reference compound] |  | 207 s |  |
| C#CCc1ccc(COC(=O)C2C(C=C(C)C=C)C2(C)C)o1 (centres unmarked) [Present compound (6), 5-Propargylfurfuryl 2',2'-dimethyl-3'-(2"-methyl-1",3"-butadienyl)-cyclopropanecarboxylate] |  | 105 s |  |
| C=CCC1=C(C)C(OC(=O)C2C(C=C(C)C=C)C2(C)C)CC1=O (centres unmarked) [Present compound (23), 2-Allyl-3-methyl-2-cyclopentene-1-one-4-yl 2',2'-dimethyl-3'-(2"-methyl-1",3"-butadienyl)-cyclopropanecarboxylate] |  | 152 s |  |
| C#CCC1=C(C)C(OC(=O)C2C(C=C(C)C=C)C2(C)C)CC1=O (centres unmarked) [Present compound (25), 2-propargyl-3-methyl-2-cyclopentene-1-one-4-yl 2',2'-dimethyl-3'-(2"-methyl-1",3"-butadienyl)-cyclopropanecarboxylate] |  |  | 190 s |
| C=CC(C)=CC1C(C(=O)OCN2C(=O)C3=C(CCCC3)C2=O)C1(C)C (centres unmarked) [Present compound (27), 3,4,5,6-Tetrahydrophthalimidomethyl 2',2'-dimethyl-3'-(2"-methyl-1",3"-butadienyl)-cyclopropanecarboxylate] |  |  | 83 s |
| C=CC(C)=CC1C(C(=O)OCN2C(=O)c3ccccc3C2=S)C1(C)C (centres unmarked) [Present compound (29), Monothiophthalimidomethyl 2,2-dimethyl-3-(2'-methyl-1',3'-butadienyl)-cyclopropanecarboxylate] |  | 182 s |  |

| SMILES | LC50 [1] | KT50 (50 percent knock down time) [2, 3] | KT50 (50 percent knock down time) [2, 4] |
| --- | --- | --- | --- |
| C=CC(C)=CC1C(C(=O)OCN2C(=O)C3=C(CC=CC3)C2=O)C1(C)C (centres unmarked) [Present compound (30), 3,6-Dihydrophthalimidomethyl 2',2'-dimethyl-3'-(2"-methyl-1",3"-butadienyl)-cyclopropanecarboxylate] |  |  | 89 s |
| C=CC(C)=CC1C(C(=O)OCN2C(=O)C(C)=C(C)C2=O)C1(C)C (centres unmarked) [Present compound (31), Dimethylmaleimidomethyl 2,2-dimethyl-3-(2'-methyl-1',3'-butadienyl)-cyclopropanecarboxylate] |  |  | 80 s |
| C#CCc1ccc(COC(=O)C2C(C=C(C)C=CC)C2(C)C)o1 (centres unmarked) [Present compound (39), 5-Propargylfurfuryl 2',2'-dimethyl-3'-(2"-methyl-1",3"-pentadienyl)-cyclopropanecarboxylate] |  | 114 s |  |
| C=CCC1=C(C)C(OC(=O)C2C(C=C(C)C=CC)C2(C)C)CC1=O (centres unmarked) [Present compound (42), 2-Allyl-3-methyl-2-cyclopentene-1-one-4-yl 2',2'-dimethyl-3'-(2"-methyl-1",3"-pentadienyl)-cyclopropanecarboxylate] |  | 165 s |  |
| CC=CC(C)=CC1C(C(=O)OCN2C(=O)C3=C(CCCC3)C2=O)C1(C)C (centres unmarked) [Present compound (43), 3,4,5,6-Tetrahydrophthalimidomethyl 2',2'-dimethyl-3'-(2"-methyl-1",3"-pentadienyl)-cyclopropanecarboxylate] |  |  | 197 s |
| C#CCc1ccc(COC(=O)C2C(C=C(C)C=C(C)C)C2(C)C)o1 (centres unmarked) [Present compound (45), 5-Propargylfurfuryl 2',2'-dimethyl-3'-(2",4"-dimethyl-1",3"-pentadienyl)-cyclopropanecarboxylate] |  | 117 s |  |
| CC(C)=CC(C)=CC1C(C(=O)OCN2C(=O)C3=C(CCCC3)C2=O)C1(C)C (centres unmarked) [Present compound (49), 3,4,5,6-Tetrahydrophthalimidomethyl 2',2'-dimethyl-3'-(2",4"-dimethyl-1",3"-pentadienyl)-cyclopropanecarboxylate] |  |  | 86 s |
| CC=C(C)C=CC1C(C(=O)OCc2coc(Cc3ccccc3)c2)C1(C)C (centres unmarked) [Present compound (56), 5-Benzyl-3-furylmethyl 2',2'-dimethyl-3'-(3"-methyl-1",3"-pentadienyl)-cyclopropanecarboxylate] |  | 150 s |  |
| C=CC=CC1C(C(=O)OC(C#N)c2cccc(Cc3ccccc3)c2)C1(C)C (stereo not drawn) [Present compound (62), 3-Benzyl-α-cyanobenzyl 2',2'-dimethyl-3'-(1",3"-butadienyl)-cyclopropanecarboxylate] |  |  | 144 s |
| C#CCc1ccc(COC(=O)C2C(C=CC=C)C2(C)C)o1 (centres unmarked) [Present compound (64), 5-Propargylfurfuryl 2',2'-dimethyl-3' -(1",3"-butadienyl)-cyclopropanecarboxylate] |  | 98 s |  |
| C#CCC1=C(C)C(OC(=O)C2C(C=CC=C)C2(C)C)CC1=O (centres unmarked) [Present compound (83), 2-Propargyl-3-methyl-2-cyclopentene-1-one-4-yl 2',2'-dimethyl-3'-(1",3"-butadienyl)-cyclopropanecarboxylate] |  |  | 183 s |
| C=CC=CC1C(C(=O)OCN2C(=O)C3=C(CCCC3)C2=O)C1(C)C (centres unmarked) [Present compound (85), 3,4,5,6-Tetrahydrophthalimidomethyl 2',2'-dimethyl-3'-(1",3"-butadienyl)-cyclopropanecarboxylate] |  |  | 74 s |
| C=CC=CC1C(C(=O)OCN2C(=O)c3ccccc3C2=S)C1(C)C (centres unmarked) [Present compound (87), Monothiophthalimidomethyl 2',2'-dimethyl-3'-(1",3"-butadienyl)-cyclopropanecarboxylate] |  | 177 s |  |
| C=CC=CC1C(C(=O)OCN2C(=O)C3=C(CC=CC3)C2=O)C1(C)C (centres unmarked) [Present compound (88), 3,6-Dihydrophthalimidomethyl 2',2'-dimethyl-3'-(1",3"-butadienyl)-cyclopropanecarboxylate] |  |  | 79 s |
| C=CC=CC1C(C(=O)OCN2C(=O)C(C)=C(C)C2=O)C1(C)C (centres unmarked) [Present compound (89), Dimethylmaleimidomethyl 2,2-dimethyl-3-(1',3'-butadienyl)-cyclopropanecarboxylate] |  |  | 72 s |
| C=CC=CC1C(C(=O)OC(C#N)c2cccc(Oc3cccc(C)c3)c2)C1(C)C (stereo not drawn) [Present compound (96), 3-(m-Tolyloxy)-α-cyanobenzyl 2',2'-dimethyl-3'-(1",3"-butadienyl)-cyclopropanecarboxylate] | 60 µg/mL (≈ 155 µM) |  |  |

Source: US3954814A, “Alkadienylcyclopropanecarboxylates” (Sumitomo Chemical Company, Limited, priority 1971, dated 1976)
